# Tested on: native tau aggregates
# Experiment: TAU radioligand in vitro displacement assay ([3H]T808, autoradiography on human AD brain sections)
# Type: binding
# Conditions: compound 10 nM, radioligand [3H]T808 10 nM
# Source text: TAU Radioligand-In-Vitro Displacement Assay
# This in vitro binding assay assesses the affinity of compounds for native tau aggregates.
# AD human brains are purchased from Banner Sun Health Research Institute (Sun City, Ariz., USA). Pathological diagnosis of AD is made according to standard NIA-Reagan Institute criteria based on neuropathological data. The radioligand [^3H]T808 was synthesized in-house ([^3H]-2-[4-(2-Fluoro-ethyl)-piperidin-1-yl]-benzo[4,5]imidazo[1,2-a]pyrimidine, radiochemical purity 99.0%). As a reference cold T808 is used (2-[4-(2-Fluoro-ethyl)-piperidin-1-yl]-benzo[4,5]imidazo[1,2-a]pyrimidine). For the autoradiography FujiFilm Imaging Plates (BAS-IP TR 2025) are exposed to the sections and read with a FujiFilm IP reader (BAS-5000).
# Ten μm thick human AD brain sections are generated with a cryostat (Leica CM3050) at −17° C. chamber temperature and −15° C. object temperature. Sections are transferred to Histobond+ microscope slides (Marienfeld Laboratory Glasware). After drying for 3 hours at room temperature the sections are stored at −20° C. The sections are incubated with the radioligand (10 nM) and the respective cold compound (at various concentrations) in 50 mM Tris buffer, pH 7.4 at room temperature for 30 min. After washing 3× 10 min at 4° C. in 50 mM Tris buffer, pH 7.4 and 3 quick dips in H2O dist. at 4° C. the sections are dried at 4° C. for 3 h. The sections are placed in a FujiFilm Cassette (BAS 2025), exposed with an Imaging Plate for five days and afterwards scanned with a resolution of […].
# The signal intensity (Dens−PSL/mm2) in the region of interest (ROI) of the autoradiogram is quantified with the software MCID analysis (version 7.0, Imaging Research Inc.). The specific binding (SB) of [^3H]T808 binding in absence or in presence of a compound is calculated by subtracting the non-specific binding signal in the white matter, thus yielding SB[3H]T808 only and SBcompound. The % displacement by the various compounds is calculated as following: % displacement=100−(SBcompound/SB[3H]T808 only)*100. Validation Data
# In each experiment cold T808 is used as a positive internal control. Co-incubation of equimolar amounts of hot and cold T808 is expected to reduce specific binding by approximately 50%.
row,Structure (SMILES),% displacement of [3H]T808 (10 nM) at 10 nM [%]
1,"COc1ccc(-c2cn3ccc(N4CCC(CCF)CC4)cc3n2)cc1 [Example 77, 7-[4-(2-Fluoro-ethyl)-piperidin-1-yl]-2-(4-methoxy-phenyl)-imidazo[1,2-a]pyridine]",27
2,"FCOc1ccc(-c2cn3ccc(NC4CC4)cc3n2)cc1 [Example 80, Cyclopropyl-[2-(4-fluoromethoxy-phenyl)-imidazo[1,2-a]pyridin-7-yl]-amine]",34
3,"Cc1cccc(-c2cn3ccc(N4CCC(CCF)CC4)cc3n2)c1 [Example 85, 7-[4-(2-Fluoro-ethyl)-piperidin-1-yl]-2-m-tolyl-imidazo[1,2-a]pyridine]",17
4,"Cc1ccc(-c2cn3ccc(N4CCC(CCF)CC4)cc3n2)cc1 [Example 87, 7-[4-(2-Fluoro-ethyl)-piperidin-1-yl]-2-p-tolyl-imidazo[1,2-a]pyridine]",5
5,"CNc1ccn2cc(-c3ccc(CO)cc3)nc2c1 [Example 89, [4-[7-(Methylamino)imidazo[1,2-a]pyridin-2-yl]phenyl]methanol acetic acid adduct]",54
6,"CN(C)c1ccn2cc(-c3ccc(CO)cc3)nc2c1 [Example 90, [4-[7-(Dimethylamino)imidazo[1,2-a]pyridin-2-yl]phenyl]methanol acetic acid adduct]",32
7,"CC(=O)O.CCOc1ccc(-c2cn3ccc(NC)cc3n2)cc1 [Example 93, N-[2-(4-Ethoxy-phenyl)-imidazo[1,2-a]pyridin-7-yl]-methyl-amine acetic acid adduct]",39
8,"CNc1ccn2cc(-c3ccc4c(c3)OCCCO4)nc2c1 [Example 96, N-[2-(3,4-Dihydro-2H-benzo[b][1,4]dioxepin-7-yl)-imidazo[1,2-a]pyridin-7-yl]-methyl-amine]",35
9,"CCN(CC)c1ccc(-c2cn3ccc(NC)cc3n2)cc1 [Example 97, N-[2-(4-Diethylamino-phenyl)-imidazo[1,2-a]pyridin-7-yl]-methyl-amine]",18
10,"COCc1ccc(-c2cn3ccc(N(C)C)cc3n2)cc1 [Example 99, 2-[4-(Methoxymethyl)phenyl]-N,N-dimethyl-imidazo[1,2-a]pyridin-7-amine acetic acid adduct]",37
11,"CNc1ccn2cc(-c3nccs3)nc2c1 [Example 104, Methyl-(2-thiazol-2-yl-imidazo[1,2-a]pyridin-7-yl)-amine]",10
12,"CN(C)c1ccn2cc(-c3ccc(COCCF)cc3)nc2c1 [Example 105, 2-[4-(2-Fluoroethoxymethyl)phenyl]-N,N-dimethyl-imidazo[1,2-a]pyridin-7-amine]",10
13,"FCOc1cccc(-c2cn3ccc(N4CCC4)cc3n2)c1 [Example 107, 7-(Azetidin-1-yl)-2-[3-(fluoromethoxy)phenyl]imidazo[1,2-a]pyridine]",48

# The remaining lines, values ahead:
row,% displacement of [3H]T808 (10 nM) at 10 nM [%],Structure (SMILES)
1,53,"CN(C)c1ccn2cc(-c3cccc(OCF)c3)nc2c1 [Example 78, [2-(3-Fluoromethoxy-phenyl)-imidazo[1,2-a]pyridin-7-yl]-dimethyl-amine]"
2,20,"CSc1ccc(-c2cn3ccc(NCCF)cc3n2)cc1 [Example 79, (2-Fluoro-ethyl)-[2-(4-methylsulfanyl-phenyl)-imidazo[1,2-a]pyridin-7-yl]-amine]"
3,47,"CNc1ccn2cc(-c3ccc(O)c(OC)c3)nc2c1 [Example 81, 2-Methoxy-4-(7-methylamino-imidazo[1,2-a]pyridin-2-yl)-phenol]"
4,49,"Br.CN(C)c1ccn2cc(-c3cccc(O)c3)nc2c1 [Example 82, 3-(7-Dimethylamino-imidazo[1,2-a]pyridin-2-yl)-phenol hydrobromide]"
5,32,"CC(=O)O.COc1cccc(-c2cn3ccc(N(C)CCF)cc3n2)c1 [Example 83, N-(2-fluoroethyl)-2-(3-methoxyphenyl)-N-methylimidazo[1,2-a]pyridin-7-amine, acetic acid adduct]"
6,26,"FC1CCN(c2ccn3cc(-c4ccc5c(c4)OCCO5)nc3c2)CC1 [Example 84, 2-(2,3-Dihydro-benzo[1, 4]dioxin-6-yl)-7-(4-fluoro-piperidin-1-yl)-imidazo[1,2-a]pyridine]"
7,33,"CO[C@@H]1CCN(c2ccn3cc(-c4cccc(C)c4)nc3c2)C1 [Example 86, 7-((R)-3-Methoxy-pyrrolidin-1-yl)-2-m-tolyl-imidazo[1,2-a]pyridine]"
8,34,"CO[C@H]1CCN(c2ccn3cc(-c4ccc(C)cc4)nc3c2)C1 [Example 88, 7-((S)-3-Methoxy-pyrrolidin-1-yl)-2-p-tolyl-imidazo[1,2-a]pyridine]"
9,39,"COc1cccc(-c2cn3ccc(N4CCC4)cc3n2)c1 [Example 91, 7-(azetidin-1-yl)-2-(3-methoxyphenyl)imidazo[1,2-a]pyridine]"
10,25,"CNc1ccn2cc(-c3cc(OC)cc(OC)c3)nc2c1 [Example 92, 2-(3,5-dimethoxyphenyl)-N-methylimidazo[1,2-a]pyridin-7-amine]"
11,18,"CC(=O)O.CNc1ccn2cc(-c3ccc(N4CCCC4)cc3)nc2c1 [Example 94, Methyl-[2-(4-pyrrolidin-1-yl-phenyl)-imidazo[1,2-a]pyridin-7-yl]-amine acetic acid adduct]"
12,55,"CNc1ccn2cc(-c3ccc(OC)c(F)c3)nc2c1 [Example 95, N-[2-(3-Fluoro-4-methoxy-phenyl)-imidazo[1,2-a]pyridin-7-yl]-methyl-amine]"
13,38,"CCc1ccc(-c2cn3ccc(NC)cc3n2)cc1 [Example 98, N-[2-(4-Ethyl-phenyl)-imidazo[1,2-a]pyridin-7-yl]-methyl-amine]"
14,59,"CNc1ccn2cc(-c3ccsc3)nc2c1 [Example 100, Methyl-(2-thiophen-3-yl-imidazo[1,2-a]pyridin-7-yl)-amine]"
15,50,"CNc1ccn2cc(-c3ccco3)nc2c1 [Example 101, N-(2-Furan-2-yl-imidazo[1,2-a]pyridin-7-yl)-methyl-amine]"
16,50,"CNc1ccn2cc(-c3cccs3)nc2c1 [Example 102, N-(2-Thiophen-2-yl-imidazo[1,2-a]pyridin-7-yl)-methyl-amine]"
17,47,"CNc1ccn2cc(-c3ccc(N4CCOCC4)cc3)nc2c1 [Example 103, Methyl-[2-(4-morpholin-4-yl-phenyl)-imidazo[1,2-a]pyridin-7-yl]-amine]"
18,36,"FCCOc1ccc(-c2cn3ccc(N4CCC4)cc3n2)cc1 [Example 106, 7-(Azetidin-1-yl)-2-[4-(2-fluoroethoxy)phenyl]imidazo[1,2-a]pyridine]"
19,26,"CNc1ccn2cc(-c3ccc(C)c(OC)c3)nc2c1 [Example 108, 2-(3-methoxy-4-methylphenyl)-N-methylimidazo[1,2-a]pyridin-7-amine]"
